From patent US9428465B2, “Acid ceramidase inhibitors and their use as medicaments” (FONDAZIONE ISTITUTO ITALIANO DI TECHNOLOGIA, priority 2012, dated 2016)
pIC50: −log10 of the molar value.

Experiments:
[1] = target: human acid ceramidase (hAC) (Homo sapiens (Human), UniProt Q13510); experiment: Human acid ceramidase (hAC) activity assay, UPLC/MS of lauric acid; type: biochemical; settings: human acid ceramidase, 50 μM N-lauroyl ceramide, pH 4.5
Protocol: Human acid ceramidase (hAC) cDNA was purchased from Open Biosystem (clone ID 3923451) and subcloned in the mammalian expression vector pCDNA3.1, containing the neomycin resistance gene. The cell line HEK293 was transfected with hAC-pCDNA3.1 construct using JetPEI reagent (Polypus Transfection™, Illkirch, FR) following the manufacturer instructions. A stable cell line of hAC-overexpressing HEK293 was generated by selection with G418 (1 mg/ml) and cell clones were derived by limited dilution plating. hAC-expressing clones were analyzed by western blot.
Hek293 cells overexpressing hAC were suspended in 20 mM Tris HCl (pH 7.5) containing 0.32M sucrose, sonicated and centrifuged at 800×g for 15 min at 4° C. The supernatants were centrifuged again at 12,000×g for 30 min at 4° C. The pellets were suspended in phosphate-buffered saline (PBS) and subjected to 2 freeze-thaw cycles at −80° C. The suspensions were centrifuged at 105,000×g for 1 h at 4° C. The supernatants containing hAC were kept at −80° C. until use. Protein concentration was measured using the bicinchoninic acid (BCA) assay (Pierce).
A hAC protein preparation (10 μg) was preincubated with inhibitors (final DMSO concentration 1%) in assay buffer (100 mM sodium phosphate, 0.1% Nonidet P-40, 150 mM NaCl, 3 mM DTT, 100 mM sodium citrate, pH 4.5) for 30 min at 37° C. Reactions were started by the addition of 50 μM N-lauroyl ceramide (Nu-Chek Prep, Elysian, Minn.) and carried on for 30 min at 37° C. Reactions were stopped by addition of a mixture of chloroform/methanol (2:1, vol/vol) containing 1 nmol 11-lauroleic acid (NuChek Prep). The organic phases were collected, dried under nitrogen and analyzed by UPLC/MS (Acquity, Waters) in the negative-ion mode monitoring the reaction product (lauric acid, m/z=199) using 11-lauroleic acid as internal standard.
Lipids were eluted on an Acquity UPLC BEH C18 column (50 mm length, 2.1 mm i.d., 1.7 μm pore size, Waters) column at 0.5 mL-min^−1 for 1.5 min with a gradient of acetonitrile (CH3CN) and water, both containing 0.25% acetic acid and 5 mM ammonium acetate (70% to 100% CH3CN in 0.5 min, 100% CH3CN for 0.5 min, 70% CH3CN for 0.4 min). The column temperature was 40° C. Electrospray ionization (ESI) was in the negative mode, capillary voltage was 1 kV and cone voltage was 50 V. Nitrogen was used as drying gas at a flow rate of 500 L/h and at a temperature of 400° C.
The [M-H]^− ion was monitored in the selected-ion monitoring mode (m/z values: lauric acid 199, 11-lauroleic acid […]). Calibration curves were generated with authentic lauric acid (Nu Check Prep). Inhibition of acid ceramidase activity was calculated as reduction of lauric acid in the samples compared to vehicle controls. IC50 values were calculated by non-linear regression analysis of log [concentration]/inhibition curves using GraphPad Prism 5 (GraphPad Software Inc., CA, USA) applying a standard slope curve fitting.

[2] = tested on: SW403 cells; experiment: SW403 cell viability, MTT assay; type: cell-based, human
Protocol: Cells were seeded in 12- or 96-well plates in complete medium 24 hrs before treatment and then incubated for 24 hrs (single treatment) or 72 hrs (multiple treatments) with different drug concentrations in media without serum. Cell viability was then evaluated.
Alternatively, cell viability was assessed measuring mitochondrial functionality by the MIT assay, which is based on the reduction of the soluble tetrazolium salt MTT [(3-(4,5-dimethylthiazol-2-yl)-2,5-diphenyltetrazolium bromide] into insoluble formazan by mitochondria. Briefly, after treatment, cells were washed with PBS and incubated with 0.5 mg/ml, MTT for 2 hrs at room temperature, MTT reduction was quantified by absorbance at 570 nm using a UV-visible plate reader.

Chain of human acid ceramidase (hAC) (Q13510 143-395): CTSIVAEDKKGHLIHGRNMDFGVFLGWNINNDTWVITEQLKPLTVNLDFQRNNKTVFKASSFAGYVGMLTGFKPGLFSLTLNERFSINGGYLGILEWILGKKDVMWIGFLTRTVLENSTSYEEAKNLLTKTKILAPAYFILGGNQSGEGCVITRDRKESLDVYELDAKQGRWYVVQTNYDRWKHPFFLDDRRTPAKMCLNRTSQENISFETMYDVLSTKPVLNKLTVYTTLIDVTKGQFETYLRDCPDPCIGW
Chain of human acid ceramidase (hAC) (Q13510 22-142): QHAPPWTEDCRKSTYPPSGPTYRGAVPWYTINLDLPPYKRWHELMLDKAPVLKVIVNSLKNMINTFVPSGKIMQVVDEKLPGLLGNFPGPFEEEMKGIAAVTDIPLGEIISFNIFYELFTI

pIC50 [1]: 7.46
Compound: CCCCCCNC(=O)n1cc(Br)c(=O)[nH]c1=O [Example 5, 5-bromo-N-hexyl-2,4-dioxo-pyrimidine-1-carboxamide]
interaction with 5FU in reducing cell viability (MTT assay) ([2]; 72 hrs, compound 30 μM + 5FU 300 nM): synergistic effect | SW403 cell viability (MTT assay) ([2]; sub-chronic treatment 72 hrs, compounds 30 μM, 5FU 300 nM): reduced cell viability
